Data set [1] concerns the target T1, hSTING-WT (R232) (Homo sapiens, UniProt Q86WV6, H232R).
T1 construct: host or cells: THP1-Dual cells (human monocytes) with knocked-in hSTING R232
The experiment in a line: STING activation, THP1-Dual IRF3 reporter assay, hSTING-R232 cells. It counts as cell-based. The conditions noted are these: IRF3 luciferase reporter, 24 hours, read-out: STING activity using hSTING-R232 cells EC50. Here is the method:
(§1) To assess potency of STING agonist compounds described herein, THP1-Dual™ Cells (NF—KB-SEAP and IRF-Lucia luciferase reporter monocytes, InvivoGen) were used. The reporter cells were knocked-in either of hSTING-WT (R232, #thpd-r232), HAQ variant (#thpd-nfis), or H232 variant (#thpd-h232). All cells were cultured at 37° C. in a humidified incubator at 5% CO2 and maintained in RPMI 1640 medium (Gibco, #22400097) supplemented with 10% heat-inactivated FBS and 1×Pen-Strep (Gibco, #15140122). To measure STING agonist-mediated IRF3 activity, the cells (9.0×10^4 cells per well) were seeded in a flat-bottomed 96-well plate. The next day, the cells were treated with compounds in a serial dilution for 24 hours. Subsequently, 20 μL of the cell culture supernatant and 50 μL of the QUANTI-Luc™ reagent (InvivoGen, #rep-qlc) were mixed in a 96-well white plate and then, luciferase activity was measured using an EnVision Xcite multilabel reader. The data were analyzed using Prism8 software (4-parameter).
(§2) The potency of STING agonist compounds was evaluated by the activation of Type I Interferon pathway using THP-1 IRF3 reporter assay.

The subject of data set [2] is human peripheral blood mononuclear cells (PBMCs). The experiment in a line: Cytokine production induction in PBMCs (ELISA). The conditions noted are these: 1 μM, 24 hours. It counts as cell-based. Here is the method:
The cells (2.0×10^4 cells per well) were seeded in a flat-bottomed 96-well plate. PBMCs were stimulated with STING agonist compounds described herein (Compound 214, 221, and 230) at 1 μM for 24 hours. BxPC-3 and MDA-MB-468 tumor cells were treated with STING agonist compounds described herein (Compound 313) in a 5-fold serial dilution from […] for 24 hours, respectively. The levels of cytokines in the culture supernatants were measured using the ELISA kit (R&D systems, #DY266, #DY9345-05) according to the manufacture's instruction.
Briefly, each well of a 96-well plate was coated with 100 μL of the diluted capture antibody in PBS and incubated overnight at room temperature (RT). Next day, each well was washed with wash buffer (0.05% Tween 20 in PBS) three times using an auto-washer. The plates were blocked with 300 μL of Reagent Diluent (1% BSA in PBS) for 1 hour at RT. The aspiration/wash step was repeated. 100 μL of diluted samples or standards in Reagent Diluent was added to each well and incubated for 2 hours at RT. After wash, 100 μL of the Detection Antibody pre-diluted in Reagent Diluent was added into each well and incubated for 2 hours at RT. After wash, 100 μL of the working diluted […] in Reagent Diluent was added and incubated under subdued light conditions for 20 minutes, followed by repeated aspiration/wash. 100 μL of substrate solution (mixed H2O2 and Tetramethylbenzidine in a 1:1 ratio) was added and incubated for 20 minutes at RT in avoiding direct light exposure. The reaction was stopped by adding 50 μL of stop solution (2N H2SO4). The optical density was determined using a microplate reader (Molecular Devices VersaMax Microplate Reader). The optical density (O.D.) of each well was normalized by subtracting the reading at 570 nm from the reading at 450 nm.

The nature of data set [3]: Plasma pharmacokinetics in naive Balb/C mouse, LC-MS/MS. The format is in vivo. The conditions noted are these: 1.5 mg/kg single IV. Here is the method: For in vivo evaluation of STING agonist compounds described herein in naïve Balb/C mouse, single doses of STING agonist compounds were given at 1.5 mg/kg intravenously into female BALB/c mice (Orientbio, South Korea) at 6-8 weeks of age. Pharmacokinetics were studied following injection of the STING agonist compounds into Balb/C mice. Plasma samples were taken at various time points and stored frozen for analysis. The plasma concentrations of the STING agonist compounds at the indicated time points were measured using a LC-MS/MS analysis method.
Briefly, 250 μL of acetonitrile (ACN) solution was added in both 50 μL of sample and 50 μL of plasma containing 10 nM Dextromethorphan (internal standard), and the solutions were mixed vigorously using a vortex mixer for 5 minutes. The samples were then spun down at 14,000 rpm, 4° C. for 5 minutes. 100 μL of supernatants were combined with 100 μL of mobile phase A (0.1% formic acid in water with 5% ACN) and mixed thoroughly. The samples were measured for the STING agonist compounds using a LC-MS/MS (Nexera LC40 (SHIMADZU) and QTRAP4500 (SCIEX)).

Data set [4] is described as follows: Normal cell cytotoxicity in CD34+ HSC, CellTiter-Glo. The format is cell-based. The conditions noted are these: human, CD34+ hematopoietic stem cells (HSCs), read-out: In vitro cell cytotoxicity in CD34+ HSC CC50. Here is the method: The CD34^+ hematopoietic stem cells (HSCs) were purchased from […]™ (#70002.3). The cells (2×10^4 cells per well) were cultured in StemSpan™ SFEM II medium supplemented with StemSpan™ CD34+ Expansion Supplement (#02691) in a 6-well plate at 37° C. for 7 days. On day 3 or 4, an equal volume of fresh complete medium was added into the cell culture. On day 7, the cells (4×10^4 cells per well) were seeded in a 96-well white plate and rested for 24 hours in the same condition.
After 72 hours, the cell viability was measured using CellTiter-Glo Luminescent Cell Viability Assay (Promega, #G7573) according to the manufacture's instruction. The signal was detected using an EnVision Xcite multilabel reader and data were analyzed using GraphPad Prism 8 software.

The subject of data set [5] is human PBMCs (CD8+ T cells and NK cells). Description: CD8+ T and NK cell activation in PBMCs by flow cytometry. The format is cell-based. The conditions noted are these: for expansion of activated CD8+ T cells / expansion of activated NK cells: 3 μM, 24 hours; for expansion of activated CD8+ T cells: FIG. 5A; for expansion of activated NK cells: FIG. 5B. Here is the method: To test the effect of STING agonist compounds described herein in the activation of innate and adaptive immune cells, flow cytometry (FACS) was performed. Human THP-1 cells (Korean Cell Line Bank, #40202) and PBMCs were seeded at 1.2×10^5 cells per well in a round-bottomed 96-well plate in RPMI 1640 medium (Gibco, #22400097) supplemented with 10% heat-inactivated FBS and 1× Antibiotic-Antimycotic (Gibco, #15240062) and rested for 24 hours at 37° C. The cells were stimulated with the STING agonist compounds as described; For THP-1 stimulation, the cells were treated with the STING agonist compound (Compound 313) in a 5-fold serial dilution from 1 μM for 48 hours. The induction of cell surface activation markers, CD86 (co-stimulatory molecule) and HLA-DR (MHC-class II), was measured by flow cytometry. […] For flow cytometry analysis, the stimulated cells were centrifuged at 300 g for 5 minutes at 4° C., and then resuspended in FACS buffer (2% FBS, 2 mM EDTA in PBS). After staining cells with human Fc blocker (BD Biosciences, #564220) in FACS buffer for 10 minutes at 4° C. Subsequently, the cells were stained with fluorescence-conjugated antibodies against CD8, CD3, CD56, and CD69 for CD8 T and NK cells activation and against CD86 and MHC-II for THP-1 naïve cells activation for 40 minutes at 4° C. After washing three times with FACS buffer, the cells were resuspended in FACS buffer and analyzed by FACSlyric (BD bioscience). The data were analyzed with Flowjo 9.0 software (BD bioscience).
After treating human PBMCs with the STING agonist compounds, it was analyzed the activation of CD8^+ T cells and NK cells by measuring CD69, an activation marker, on their cell surface by flow cytometry.

Data set [6] concerns the target T2, human STING (Homo sapiens, UniProt Q86WV6, H232R).
T2 construct: purchased Cisbio 64BDSTGPEG
Description: Direct STING binding, HUMAN STING WT BINDING KIT (Cisbio). The following applies: direct binding to human STING WT protein in vitro; read-out: Binding potency EC50. From the text: Additionally, for analysis of direct binding potency of STING agonist compounds described herein to human STING, HUMAN STING WT BINDING KIT (Cisbio, #64BDSTGPEG) was used according to the manufacture's instruction.

A short description of data set [7]: Normal cell cytotoxicity in PBMCs, CellTiter-Glo. The following applies: human, read-out: In vitro cell cytotoxicity in PBMCs CC50. It counts as cell-based. Here is the method:
PBMCs were also purchased from […]™ (#700025.2). The cells (8.0×10^4 cells per well) were seeded in a flat-bottomed 96-well plate in RPMI 1640 medium (Gibco, #22400097) with 10% heat-inactivated FBS and 1× Antibiotic-Antimycotic (Gibco, #15240062) and rested for 24 hours at 37° C. […] After 72 hours, the cell viability was measured using CellTiter-Glo Luminescent Cell Viability Assay (Promega, #G7573) according to the manufacture's instruction. The signal was detected using an EnVision Xcite multilabel reader and data were analyzed using GraphPad Prism 8 software.
To verify the effect of the STING agonist compounds in normal cell cytotoxicity, the PBMCs were treated with the STING agonist compounds for 3 days and measured the percentage of cell death.

Data set [8] addresses T3, hSTING H232 variant (Homo sapiens, UniProt Q86WV6).
T3 construct: host or cells: THP1-Dual cells (human monocytes) with knocked-in hSTING H232
Description: STING activation, THP1-Dual IRF3 reporter assay, hSTING-H232 cells. The format is cell-based. The following applies: IRF3 luciferase reporter, 24 hours, read-out: STING activity using hSTING-H232 cells, H232 EC50. Here is the method:
as §1, §2

Data set [9] deals with T4, hSTING HAQ variant (Homo sapiens, UniProt Q86WV6, G230A/H232R/R293Q/R71H).
T4 construct: host or cells: THP1-Dual cells (human monocytes)
The experiment in a line: STING activation, THP1-Dual IRF3 reporter assay, hSTING-HAQ cells. It counts as cell-based. The following applies: IRF3 luciferase reporter, 24 hours, read-out: STING activity using hSTING-HAQ cells, HAQ EC50. Here is the method:
as §1, §2

T1 sequence (Q86WV6 whole entry H232R): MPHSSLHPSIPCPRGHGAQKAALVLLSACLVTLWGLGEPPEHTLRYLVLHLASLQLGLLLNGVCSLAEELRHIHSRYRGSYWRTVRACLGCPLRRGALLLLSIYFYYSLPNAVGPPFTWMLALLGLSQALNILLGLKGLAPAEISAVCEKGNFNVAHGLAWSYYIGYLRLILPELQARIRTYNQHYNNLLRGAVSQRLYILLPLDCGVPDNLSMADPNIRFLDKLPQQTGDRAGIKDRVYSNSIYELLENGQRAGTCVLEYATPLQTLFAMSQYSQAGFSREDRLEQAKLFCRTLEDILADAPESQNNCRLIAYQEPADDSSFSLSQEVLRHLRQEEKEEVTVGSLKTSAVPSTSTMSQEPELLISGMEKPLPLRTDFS
T2 sequence (Q86WV6 whole entry H232R): as above
T4 sequence (Q86WV6 whole entry R71H/G230A/H232R/R293Q): as the sequence (Q86WV6 whole entry H232R) above, with R71H, G230A, R293Q counted along it

As for `CCn1nc(C)cc1C(=O)Nc1nc2cc(C(N)=O)cc(OC)c2n1C/C=C/Cn1c(NC(=O)c2cc(C)nn2CC)nc2cc(C(N)=O)cc(OCc3cccc(NC(=O)OCc4ccc(O[C@@H]5O[C@H](C(=O)O)[C@@H](O)[C@H](O)[C@H]5O)c(C(=O)NCCOC)c4)c3)c21` [Compound 230], the EC50 in data set [1] came out at 3.96 nM. Moreover, the “human CXCL-10 production” value in [2] (FIG. 1A) is recorded as “induced cytokine production”. Besides, in data set [2] (FIG. 1B), the “human IFNα production” value was “induced cytokine production”.
Consider `CCn1nc(C)cc1C(=O)Nc1nc2cc(C(N)=O)cc(OC)c2n1C/C=C/Cn1c(NC(=O)c2cc(C)nn2CC)nc2cc(C(N)=O)cc(OC/C=C/Cn3cc(NC(=O)OCc4ccc(O[C@@H]5O[C@H](C(=O)O)[C@@H](O)[C@H](O)[C@H]5O)c(C(=O)NCCOCCOCCO)c4)cn3)c21` [Compound 277], for which, in data set [3] (n = 3, dose-normalised), the “AUC∞, norm” value was determined as 7.37 ± 0.25 kg·h/L and the “Cmax, norm” value is 4.04 ± 0.24 kg/L. Moreover, in data set [3] (female, n = 3, plasma), the area under the curve AUC(0-inf) was 11100 ± 370 ng·h/mL, the AUC(0-t) stood at 10500 ± 490 ng·h/mL, the C0 is 6530 ± 320 ng/mL and the concentration peaked (Cmax) at 6060 ± 360 ng/mL. In [3] (female, plasma, n = 3), this molecule showed a clearance of 2.33 mL/min/kg and a half-life of 82.8 ± 11.4 min. Further, in data set [3] (female, plasma, n = 3, read-out: VSS), the Vd came out at 0.27 ± 0.03 L/kg. The 50% cytotoxic concentration (CC50) at 72 h in [4] was determined as 13.5 nM. The “CD69 expression on CD8+ T cells” value in [5] (100 nM, 48 hours, FIG. 4A) is given as “enhanced CD69 expression”. Further, in data set [5] (100 nM, 48 hours, FIG. 4B), the “CD69 expression on NK cells” value is “enhanced CD69 expression”. In data set [1], the EC50 is 27.4 nM. For the same molecule, the EC50 in [6] turned out to be 0.2 nM. In data set [7], the CC50 at 72 h worked out at 32.1 nM.
In the case of `CCn1nc(C)cc1C(=O)Nc1nc2cc(C(N)=O)cc(OC)c2n1C/C=C/Cn1c(NC(=O)c2cc(C)nn2CC)nc2cc(C(N)=O)cc(OC/C=C/Cn3cc(NC(=O)OCc4ccc(O[C@@H]5O[C@H](C(=O)O)[C@@H](O)[C@H](O)[C@H]5O)c(C(=O)NCCOCCOCCO[C@@H]5O[C@H](C(=O)O)[C@@H](O)[C@H](O)[C@H]5O)c4)cn3)c21` [Compound 344], in [5], the “expansion of activated CD8+ T cells” value is “enhanced expansion” and the “expansion of activated NK cells” value is reported as “enhanced expansion”. In [1], the EC50 stood at 11.1 nM. For the same molecule, in [6], the EC50 is 0.24 nM.
`CCn1nc(C)cc1C(=O)Nc1nc2cc(C(N)=O)cc(OC/C=C/Cn3cc(NC(=O)OCc4ccc(O[C@@H]5O[C@H](C(=O)O)[C@@H](O)[C@H](O)[C@H]5O)c(C(=O)NCCOCCOCCN5CCOCC5)c4)cn3)c2n1C/C=C/Cn1c(NC(=O)c2cc(C)nn2CC)nc2cc(C(N)=O)cc(OCCCC(=O)O)c21` [Compound 361]: in data set [5], the “expansion of activated CD8+ T cells” value is reported as “enhanced expansion” and the “expansion of activated NK cells” value is listed as “enhanced expansion”. Also, the EC50 in data set [1] came out at 35.8 nM. The EC50 in data set [6] was found to be 0.1 nM.
On to `CCn1nc(C)cc1C(=O)Nc1nc2cc(C(N)=O)cc(OC)c2n1C/C=C/Cn1c(NC(=O)c2cc(C)nn2CC)nc2cc(C(N)=O)cc(OC/C=C/CN3CCCN3C(=O)OCc3ccc(O[C@@H]4O[C@H](C(=O)O)[C@@H](O)[C@H](O)[C@H]4O)c(C(=O)NCCOCCOCCN(C)C)c3)c21` [Compound 424], for which the CC50 at 72 h in [4] was 30.6 nM; in [7], 147 nM. For the same molecule, the EC50 is 117 nM in [8], 72 nM in data set [1], 517 nM in [9] and 1.6 nM in data set [6].
